We go through 26 compounds from PubChem BioAssay AID328 (DTP/NCI, 2004).

SMILES strings stand for the structures. “And” between values parts separate entries of the source, which are not always exact repeats. Identical values can stand only once. Toxic doses and inconclusive results are not listed. Residues, ends and D or L forms follow the SMILES beside them.

For the test, the system named is BDF1 mice, P388 leukemia ip, median survival T/C. Description: NCI In Vivo Anticancer Drug Screen. Data for tumor model P388 Leukemia (intraperitoneal) in B6D2F1 (BDF1) mice. The conditions noted are these: endpoint: median survival time, higher = longer survival. An outline of the steps:
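Vehicle-dosed animals serve as the reference; survival of compound-dosed, tumour-implanted mice is divided by it.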

Setting [1] is: dose: 100.0 mg/kg/injection, schedule: Q01DX009 (ip), vehicle: saline with Tween-80.
Setting [2] is: dose: 200.0 mg/kg/injection, schedule: Q01DX009 (ip), vehicle: saline with Tween-80.
The mark [3] stands for this setting: dose: 400.0 mg/kg/injection, schedule: Q01DX009 (ip), vehicle: saline with Tween-80.
Where [4] appears, read: dose: 50.0 mg/kg/injection, schedule: Q01DX005 (ip), vehicle: saline.
The mark [5] stands for this setting: dose: 100.0 mg/kg/injection, schedule: Q04DX003 (ip), vehicle: saline with Tween-80.
[6] abbreviates: dose: 200.0 mg/kg/injection, schedule: Q04DX003 (ip), vehicle: saline with Tween-80.
Where [7] appears, read: dose: 400.0 mg/kg/injection, schedule: Q04DX003 (ip), vehicle: saline with Tween-80.
Setting [8] is: dose: 50.0 mg/kg/injection, schedule: Q01DX009 (ip), vehicle: saline with Tween-80.
[9] abbreviates: dose: 25.0 mg/kg/injection, schedule: Q01DX009 (ip), vehicle: Klucel (hydroxypropylcellulose) (HPC).
[10] abbreviates: dose: 100.0 mg/kg/injection, schedule: Q04DX003 (ip), vehicle: Klucel (hydroxypropylcellulose) (HPC).
The mark [11] stands for this setting: dose: 1.56 mg/kg/injection, schedule: Q01DX009 (ip), vehicle: saline.
Where [12] appears, read: dose: 3.12 mg/kg/injection, schedule: Q01DX009 (ip), vehicle: saline.
Where [13] appears, read: dose: 6.25 mg/kg/injection, schedule: Q01DX009 (ip), vehicle: saline.
Setting [14] is: dose: 12.5 mg/kg/injection, schedule: Q01DX009 (ip), vehicle: saline.
The mark [15] stands for this setting: dose: 12.5 mg/kg/injection, schedule: Q01DX009 (ip), vehicle: saline with Tween-80.
Setting [16] is: dose: 25.0 mg/kg/injection, schedule: Q01DX009 (ip), vehicle: saline with Tween-80.
[17] abbreviates: dose: 200.0 mg/kg/injection, schedule: Q04DX003 (ip), vehicle: Klucel (hydroxypropylcellulose) (HPC).
Where [18] appears, read: dose: 400.0 mg/kg/injection, schedule: Q04DX003 (ip), vehicle: Klucel (hydroxypropylcellulose) (HPC).
[19] abbreviates: dose: 100.0 mg/kg/injection, schedule: Q01DX009 (ip), vehicle: Klucel (hydroxypropylcellulose) (HPC).

On to `COc1ccc(CC(=O)NCCc2ccc3cc(OC)c(OC)cc3c2)cc1OC`, for which the T/C by setting is: under setting [1], 95 % of control; under setting [2], 95 % of control; under setting [3], 91 % of control.
`COc1cc(OC)c(NC(=O)c2ccc([N+](=O)[O-])s2)cc1Cl`: the T/C (dose: 25.0 mg/kg/injection, schedule: Q01DX005 (ip), vehicle: saline) is 102 % of control and the T/C under setting [4] is 89 % of control.
In the case of `CC(C)C1NC(=O)C2CCCN2C1=O` (stereo not drawn), the T/C under setting [1] was 100 % of control; the T/C under setting [5] is 109 % of control; the T/C under setting [2] was 100 % of control; the T/C under setting [6] is 113 % of control; the T/C under setting [3] was 123 % of control; the T/C under setting [7] is 118 % of control.
`CC(=Nc1ccccc1)C1=C(O)C(Cc2ccc(O)cc2)NC1=O` (stereo not drawn): the T/C under setting [8] is 110 % of control and the T/C under setting [1] is 101 % of control.
For `Cc1ncc(CO)c(C2NOCc3ccc(Cl)cc32)c1O` (stereo not drawn), the T/C by setting is: (dose: 12.5 mg/kg/injection, schedule: Q01DX009 (ip), vehicle: Klucel (hydroxypropylcellulose) (HPC)) 104 % of control; under setting [9], 86 % of control; (dose: 25.0 mg/kg/injection, schedule: Q04DX003 (ip), vehicle: Klucel (hydroxypropylcellulose) (HPC)) 111 % of control; (dose: 50.0 mg/kg/injection, schedule: Q04DX003 (ip), vehicle: Klucel (hydroxypropylcellulose) (HPC)) 105 % of control; under setting [10], 122 % of control.
Consider `O=C1CCCC2C3CC(CN12)C1CC(O)CCN1C3` (stereo not drawn), for which the T/C is, setting by setting: (dose: 20.0 mg/kg/injection, schedule: Q01DX010 (ip), vehicle: saline) 90 % of control; (dose: 40.0 mg/kg/injection, schedule: Q01DX010 (ip), vehicle: saline) 100 % of control; (dose: 80.0 mg/kg/injection, schedule: Q01DX010 (ip), vehicle: saline) 100 % of control.
As for `Cc1ccc2c3csc4ccccc4c-3nc2c1`, the T/C reads like this: under setting [11], 113 % of control; under setting [12], 113 % of control; under setting [13], 113 % of control; under setting [14], 100 % of control and 111 % of control; (dose: 18.0 mg/kg/injection, schedule: Q01DX009 (ip), vehicle: saline) 118 % of control; (dose: 25.0 mg/kg/injection, schedule: Q01DX009 (ip), vehicle: saline) 104 % of control.
Take `Cc1cc(-c2ccccc2)[n+](C)n1C`: the T/C is 98 % of control under setting [15] and 118 % of control under setting [16].
As to `CCOc1ccc(NC(=O)OCCN2CCN(CCc3ccccc3)C(C)C2)cc1` (stereo not drawn), the T/C is 94 % of control under setting [8] and 98 % of control under setting [1].
With `CC(=O)Nc1ccc(/C=N/Nc2ccc([N+](=O)[O-])cn2)cc1`, the T/C reads like this: (dose: 62.5 mg/kg/injection, schedule: Q01DX010 (ip), vehicle: saline) 95 % of control; (dose: 100.0 mg/kg/injection, schedule: Q04DX003 (ip), vehicle: saline sonified) 105 % of control; (dose: 125.0 mg/kg/injection, schedule: Q01DX010 (ip), vehicle: saline) 90 % of control; (dose: 200.0 mg/kg/injection, schedule: Q04DX003 (ip), vehicle: saline sonified) 105 % of control; (dose: 250.0 mg/kg/injection, schedule: Q01DX010 (ip), vehicle: saline) 100 % of control; (dose: 400.0 mg/kg/injection, schedule: Q04DX003 (ip), vehicle: saline sonified) 100 % of control.
On to `CCC1CN1P(=O)(Oc1ccc2ccccc2c1)N1CC1CC` (stereo not drawn), for which the T/C under setting [6] was 245 % of control and the T/C under setting [7] is 86 % of control.
On to `CCN(CC)C(=O)C1=NNc2ccc(Cl)cc2C(=O)N1C`, for which the T/C reads like this: under setting [5], 100 % of control; under setting [6], 109 % of control; under setting [7], 97 % of control.
Take `Nc1nc(=S)c2[nH]c(N=Nc3ccc(S(=O)(=O)Nc4nccs4)cc3)nc2[nH]1`: the T/C (dose: 25.0 mg/kg/injection, schedule: Q01DX001 (ip), vehicle: Klucel (hydroxypropylcellulose) (HPC)) was 115 % of control; the T/C (dose: 100.0 mg/kg/injection, schedule: Q01DX001 (ip), vehicle: Klucel (hydroxypropylcellulose) (HPC)) was 117 % of control; the T/C (dose: 200.0 mg/kg/injection, schedule: Q01DX001 (ip), vehicle: Klucel (hydroxypropylcellulose) (HPC)) is 120 % of control.
For `O=C1c2cscc2C(=O)c2c(Cl)sc(Cl)c21`, the T/C was 101 % of control (dose: 6.25 mg/kg/injection, schedule: Q01DX009 (ip), vehicle: saline with Tween-80); 108 % of control under setting [15]; 101 % of control under setting [16].
Take `O=S(=O)(Nc1ccc(NS(=O)(=O)c2ccccc2)nc1)c1ccccc1`: the T/C is 100 % of control under setting [10], 104 % of control under setting [17] and 100 % of control under setting [18].
`C#CCOC(=O)Nc1cccc2ccccc12`: the T/C was 100 % of control under setting [19]; 100 % of control under setting [10]; 110 % of control (dose: 200.0 mg/kg/injection, schedule: Q01DX009 (ip), vehicle: Klucel (hydroxypropylcellulose) (HPC)); 100 % of control under setting [17]; 120 % of control (dose: 400.0 mg/kg/injection, schedule: Q01DX009 (ip), vehicle: Klucel (hydroxypropylcellulose) (HPC)); 109 % of control under setting [18].
For `CC(=O)OC1C=CCC23C(=O)C=CC(=O)C12C(=O)c1ccccc1C3=O` (stereo not drawn), the T/C is, setting by setting: under setting [11], 102 % of control; under setting [12], 93 % of control; under setting [13], 95 % of control; under setting [14], 95 % of control; (dose: 50.0 mg/kg/injection, schedule: Q01DX009 (ip), vehicle: saline) 107 % of control.
With `CCCc1nc2c(OC)ccc(OC)c2nc1C`, the T/C was 100 % of control under setting [9]; 100 % of control (dose: 50.0 mg/kg/injection, schedule: Q01DX009 (ip), vehicle: Klucel (hydroxypropylcellulose) (HPC)); 100 % of control under setting [19]; 90 % of control (dose: 150.0 mg/kg/injection, schedule: Q01DX009 (ip), vehicle: Klucel (hydroxypropylcellulose) (HPC)).
In the case of `CNc1nc2ncn(C)c2c(=O)[nH]1`, the T/C is 100 % of control (dose: 100.0 mg/kg/injection, schedule: Q01DX009 (ip), vehicle: saline); 109 % of control (dose: 200.0 mg/kg/injection, schedule: Q01DX009 (ip), vehicle: saline); 95 % of control (dose: 400.0 mg/kg/injection, schedule: Q01DX009 (ip), vehicle: saline).
As for `CC(C)C(N)C(=O)NC(CO)C(=O)O` (stereo not drawn) (H-Val-Ser-OH; configuration not given here), the T/C was 99 % of control under setting [4]; 106 % of control (dose: 100.0 mg/kg/injection, schedule: Q01DX005 (ip), vehicle: saline); 92 % of control (dose: 200.0 mg/kg/injection, schedule: Q01DX005 (ip), vehicle: saline).
As for `CCCCCCCCCCCCCCCCCCCCCCCCC(O)C(=O)NC(CO)C(O)C(O)CCCCCCCCCCCCCC` (stereo not drawn), the T/C under setting [7] is 87 % of control.
Turning to `ClC(Cl)(Cl)c1cccc(C(Cl)(Cl)Cl)c1`, the T/C under setting [10] was 115 % of control; the T/C under setting [17] was 120 % of control; the T/C (dose: 266.0 mg/kg/injection, schedule: Q04DX003 (ip), vehicle: Klucel (hydroxypropylcellulose) (HPC)) was 90 % of control.
With `CC1(C)N=C(N)N=C(N)N1c1cccc(CNC(=O)Nc2cccc(S(=O)(=O)F)c2)c1`, the T/C under setting [8] was 154 % of control; the T/C (dose: 50.0 mg/kg/injection, schedule: Q04DX003 (ip), vehicle: saline with Tween-80) was 100 % of control; the T/C under setting [1] is 168 % of control; the T/C under setting [5] is 100 % of control.
As for `c1ccc(-c2nnc3oc(-c4cccs4)nn23)cc1`, the T/C is 86 % of control under setting [1], 90 % of control under setting [2] and 90 % of control under setting [3].
For `COc1ccc(-c2c(CC(=O)O)c3cc(OC)ccc3n2Cc2ccc(Cl)cc2)cc1`, the T/C reads like this: under setting [1], 90 % of control; under setting [2], 113 % of control; under setting [3], 90 % of control.
For `C[CH2][Ge]([CH2]C)[CH2]C.C[CH2][Ge]([CH2]C)[CH2]C.C[CH2][Ge]([CH2]C)[O][Ge]([CH2]C)[CH2]C`, the T/C is 115 % of control and 116 % of control under setting [8]; 112 % of control under setting [1].
